Test [1] deals with T1, rat P2X3 receptor (Rattus norvegicus, UniProt P49654).
T1 construct: expressed in transfected cells; host or cells: CHO-K1
T1 sequence (P49654 1-397): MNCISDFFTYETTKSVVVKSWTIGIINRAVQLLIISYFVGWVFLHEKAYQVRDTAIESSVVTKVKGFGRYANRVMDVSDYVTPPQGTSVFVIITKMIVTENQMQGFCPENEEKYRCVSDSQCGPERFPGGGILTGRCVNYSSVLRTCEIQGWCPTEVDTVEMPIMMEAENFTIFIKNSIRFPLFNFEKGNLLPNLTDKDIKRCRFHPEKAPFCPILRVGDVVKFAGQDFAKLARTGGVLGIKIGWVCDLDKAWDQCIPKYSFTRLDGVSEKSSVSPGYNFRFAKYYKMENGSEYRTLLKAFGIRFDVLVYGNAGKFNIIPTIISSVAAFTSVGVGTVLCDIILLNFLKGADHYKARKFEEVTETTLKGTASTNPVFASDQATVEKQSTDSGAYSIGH
Nature of the test: P2X3 FLIPR (Fluorometric Imaging Plate Reader) assay. It counts as cell-based. The note with it: CHO-K1 cells transfected with rat P2X3; agonist α,β-meATP 1 μM; Fluo-3 calcium fluorescence. The protocol: (§1) CHO-K1 cells were transfected with cloned rat P2X3 or human P2X2/3 receptor subunits and passaged in flasks. 18-24 hours before the FLIPR experiment, cells were released from their flasks, centrifuged, and resuspended in nutrient medium at 2.5×10^5 cells/ml. The cells were aliquoted into black-walled 96-well plates at a density of 50,000 cells/well and incubated overnight in 5% CO2 at 37° C. On the day of the experiment, cells were washed in FLIPR buffer (calcium- and magnesium-free Hank's balanced salt solution, 10 mM HEPES, 2 mM CaCl2, 2.5 mM probenecid; FB). Each well received 100 μl FB and 100 μl of the fluorescent dye Fluo-3 AM [2 μM final conc.]. […]
(§2) Test compounds (dissolved in DMSO at 10 mM and serially diluted with FB) or vehicle were added to each well (25 μl of a 4× solution) and allowed to equilibrate for 20 minutes at room temperature. The plates were then placed in the FLIPR and a baseline fluorescence measurement (excitation at 488 nm and emission at 510-570 nm) was obtained for 10 seconds before a 100 μl/well agonist or vehicle addition. […] Fluorescence was measured for an additional 2 minutes at 1 second intervals after agonist addition. A final addition of ionomycin (5 μM, final concentration) was made to each well of the FLIPR test plate to establish cell viability and maximum fluorescence of dye-bound cytosolic calcium. […]

The target in test [2] is T2, human P2X2/3 receptor (Homo sapiens, UniProt P56373+Q9UBL9).
T2 construct: expressed in transfected cells; host or cells: CHO-K1
T2 sequence (Q9UBL9 1-471): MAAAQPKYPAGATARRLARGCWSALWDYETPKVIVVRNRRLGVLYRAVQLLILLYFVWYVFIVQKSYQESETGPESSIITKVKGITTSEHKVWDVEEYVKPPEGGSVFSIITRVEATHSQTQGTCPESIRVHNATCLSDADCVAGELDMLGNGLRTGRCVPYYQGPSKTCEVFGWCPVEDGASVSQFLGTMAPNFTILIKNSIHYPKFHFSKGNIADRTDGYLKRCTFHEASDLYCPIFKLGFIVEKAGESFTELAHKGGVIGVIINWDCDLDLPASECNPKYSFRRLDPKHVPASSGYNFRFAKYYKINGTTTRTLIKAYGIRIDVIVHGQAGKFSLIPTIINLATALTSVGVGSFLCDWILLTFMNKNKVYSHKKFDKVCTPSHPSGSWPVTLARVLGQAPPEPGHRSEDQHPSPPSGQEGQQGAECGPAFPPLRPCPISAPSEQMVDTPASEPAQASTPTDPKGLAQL
T2 sequence (P56373 1-397): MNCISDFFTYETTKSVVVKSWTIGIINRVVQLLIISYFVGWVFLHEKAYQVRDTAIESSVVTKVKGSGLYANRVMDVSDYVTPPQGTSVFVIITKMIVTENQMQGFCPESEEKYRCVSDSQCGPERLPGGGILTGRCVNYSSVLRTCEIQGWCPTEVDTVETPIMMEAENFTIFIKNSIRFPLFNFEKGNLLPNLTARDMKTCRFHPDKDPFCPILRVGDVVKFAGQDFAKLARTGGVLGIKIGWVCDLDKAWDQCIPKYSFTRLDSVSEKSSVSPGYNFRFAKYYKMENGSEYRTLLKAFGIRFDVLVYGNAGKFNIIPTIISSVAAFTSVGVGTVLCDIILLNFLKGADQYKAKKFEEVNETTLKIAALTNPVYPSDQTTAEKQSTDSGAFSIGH
The test can be described thus: P2X2/3 FLIPR (Fluorometric Imaging Plate Reader) assay. It counts as cell-based. The note with it: CHO-K1 cells transfected with human P2X2/3; agonist α,β-meATP 5 μM; Fluo-3 calcium fluorescence. How it is done:
as §1, §2

Molecules are shown by their SMILES.

On to `Cc1cccc(-n2cc(-c3ccc(F)cc3)c3c(NC4CCOCC4)ncnc32)c1` [Compound 11, [5-(4-Fluoro-phenyl)-7-m-tolyl-7H-pyrrolo[2,3-d]pyrimidin-4-yl]-(tetrahydro-pyran-4-yl)-amine], for which the IC50 – broadly, the concentration needed to halve the response being measured – in test [1] is approximately 309 nM. In the case of `Cc1ccc(-n2cc(-c3ccccc3)c3c(N[C@H](C)CO)ncnc32)cc1Cl` [Compound 12, (R)-2-[7-(3-Chloro-4-methyl-phenyl)-5-phenyl-7H-pyrrolo[2,3-d]pyrimidin-4-ylamino]-propan-1-ol], the IC50 in test [2] was approximately 501 nM.

Source of the values: US20100144758A1, “AZAINDOLE P2X3 AND P2X2/3 MODULATORS” (priority 2008, published 2010).
